# In patent publication US7247634B2, “Rifamycin derivatives effective against drug-resistant microbes” (Cumbre Pharmaceuticals Inc., priority 2004, dated 2007):
# How the values were obtained:
# Assay type in all cases: cell-based
# [1] = system: Staphylococcus aureus ATCC29213; experiment: MIC, microbroth dilution (NCCLS); settings: rifS strain, Cation-Adjusted Mueller-Hinton Broth, 37° C., read-out: Antimicrobial activity (MIC)
# [2] = system: Staphylococcus aureus ATCC29213 rpoB^D417Y; experiment: microbe, parasite or virus in culture; settings: ATCC29213, read-out: Antimicrobial activity (MIC)
# Procedure: (§1) Representative compounds were assayed for antimicrobial activity as follows: Minimum Inhibitory Concentrations (“MICs”) were determined by the microbroth dilution method as per NCCLS guidelines (National Committee for Clinical Laboratory Standards. 2000. Methods for dilution antimicrobial susceptibility tests for bacteria that grow aerobically, 5th ed. M7-A5. National Committee for Clinical Laboratory Standards, Wayne, Pa.), except that all growth incubations were conducted at 37° C. Bacterial cultures were tested in the following bacteriological media: S. aureus, S. epidermidis, and E. coli in Cation-Adjusted Mueller-Hinton Broth, S. pneumoniae in THY Broth supplemented with 1 mg/mL catalase under 5% CO2 atmosphere, S. pyogenes in THY Broth, E. faecalis in BHI Broth, H. influenzae in BHI Broth supplemented with 0.75 μL of 1 mg/mL NAD and 150 μL of 1 mg/ml hematin per 5 mL, and M. smegmatis in Middlebrook Broth plus ADC Enrichment.
# (§2) S. aureus ATCC 29213 RpoB^H418Y is a rifampin-resistant strain with a mutation in RNA polymerase, the biological target of rifamycin antibiotics. […] S. aureus EN1252a gyrA^S84L grlA^S80F is a quinolone-resistant strain due to double mutations to DNA gyrase and topoisomerase IV, the two biological targets for quinolone antibiotics.
# [3] = system: Staphylococcus aureus ATCC29213 rpoB^H418Y; experiment: microbe, parasite or virus in culture; settings: ATCC29213, read-out: Antimicrobial activity (MIC)
# Procedure: as §1, §2
# [4] = system: Staphylococcus aureus EN1252a gyrA^S84L grlA^S80F; experiment: microbe, parasite or virus in culture; settings: read-out: Antimicrobial activity (MIC)
# Procedure: as §1, §2
# [5] = system: Staphylococcus epidermidis ATCC12228; experiment: MIC, microbroth dilution (NCCLS); settings: rifS strain, Cation-Adjusted Mueller-Hinton Broth, 37° C., read-out: Antimicrobial activity (MIC)
# [6] = system: Streptococcus pneumoniae ATCC6303; experiment: MIC, microbroth dilution (NCCLS); settings: rifS strain, THY Broth with 1 mg/mL catalase, 5% CO2, 37° C., read-out: Antimicrobial activity (MIC)
# [7] = system: Streptococcus pyogenes ATCC19615; experiment: MIC, microbroth dilution (NCCLS); settings: rifS strain, THY Broth, 37° C., read-out: Antimicrobial activity (MIC)
# [8] = system: Enterococcus faecalis ATCC29212; experiment: MIC, microbroth dilution (NCCLS); settings: rifS strain, BHI Broth, 37° C., read-out: Antimicrobial activity (MIC)
# [9] = system: Haemophilus influenzae ATCC10211; experiment: MIC, microbroth dilution (NCCLS); settings: rifS strain, BHI Broth with NAD and hematin, 37° C., read-out: Antimicrobial activity (MIC)
# [10] = system: Escherichia coli ATCC25922; experiment: MIC, microbroth dilution (NCCLS); settings: rifS strain, Cation-Adjusted Mueller-Hinton Broth, 37° C., read-out: Antimicrobial activity (MIC)
# [11] = system: Mycobacterium smegmatis ATCC700084; experiment: MIC, microbroth dilution (NCCLS); settings: Mycolicibacterium smegmatis, rifS strain, Middlebrook Broth plus ADC Enrichment, 37° C., read-out: Antimicrobial activity (MIC)
Structure (SMILES),MIC [1] [µg/mL],MIC [2] [µg/mL],MIC [3] [µg/mL],MIC [4] [µg/mL],MIC [5] [µg/mL],MIC [6] [µg/mL],MIC [7] [µg/mL],MIC [8] [µg/mL],MIC [9] [µg/mL],MIC [10] [µg/mL],MIC [11] [µg/mL]
"COc1c(N2CCCC(NC(=O)C3CN(C4=C5NC(=O)/C(C)=C\C=C\[C@H](C)[C@H](O)[C@@H](C)[C@@H](O)[C@@H](C)[C@H](OC(C)=O)[C@H](C)[C@@H](OC)/C=C/O[C@@]6(C)Oc7c(C)c(O)c(c(c7C6=O)C4=O)C5=O)C3)C2)c(F)cc2c(=O)c(C(=O)O)cn(C3CC3)c12 (mixture of isomers) [Example 46, 3-{3-[1-(3-Carboxy-1-cyclopropyl-6-fluoro-8-methoxy-4-oxo-1,4-dihydroquinolin-7-yl)-piperidin-3-ylcarbamoyl]-azetidin-1-yl}rifamycin S]",0.004 to 0.5,0.06 to 32,0.06 to 16,0.004 to 0.5,0.008 to 0.063,0.008 to 0.125,0.008 to 0.063,2 to 32,0.125 to 2,0.125 to 8,0.5 to 64
"CO[C@H]1/C=C/O[C@@]2(C)Oc3c(C)c(O)c4c(c3C2=O)C(=O)C(NC2CCN(c3c(F)cc5c(=O)c(C(=O)O)cn(C6CC6)c5c3Cl)C2)=C(NC(=O)/C(C)=C\C=C\[C@H](C)[C@H](O)[C@@H](C)[C@@H](O)[C@@H](C)[C@H](OC(C)=O)[C@@H]1C)C4=O (mixture of isomers) [Example 7, (R/S)-3-[1-(3-Carboxy-8-chloro-1-cyclopropyl-6-fluoro-4-oxo-1,4-dihydroquinolin-7-yl)-pyrrolidin-3-ylamino]rifamycin S]",0.004 to 0.5,0.06 to 32,0.06 to 16,0.004 to 0.5,0.008 to 0.063,0.008 to 0.125,0.008 to 0.063,2 to 32,0.125 to 2,0.125 to 8,0.5 to 64
"CO[C@H]1/C=C/O[C@@]2(C)Oc3c(C)c(O)c4c(O)c(c(CNC5CCN(c6c(F)cc7c(=O)c(C(=O)O)cn(C8CC8)c7c6Cl)C5)c(O)c4c3C2=O)NC(=O)/C(C)=C\C=C\[C@H](C)[C@H](O)[C@@H](C)[C@@H](O)[C@@H](C)[C@H](OC(C)=O)[C@@H]1C (mixture of isomers) [Example 13, (R/S)-3-[1-(8-Chloro-3-carboxy-1-cyclopropyl-6-fluoro-4-oxo-1,4-dihydroquinolin-7-yl)-pyrrolidinyl-3-aminomethyl]rifamycin SV]",0.004 to 0.5,0.06 to 32,0.06 to 16,0.004 to 0.5,0.008 to 0.063,0.008 to 0.125,0.008 to 0.063,2 to 32,0.125 to 2,0.125 to 8,0.5 to 64
COc1c(N2CCC(NC3=C4NC(=O)/C(C)=C\C=C\[C@H](C)[C@H](O)[C@@H](C)[C@@H](O)[C@@H](C)[C@H](OC(C)=O)[C@H](C)[C@@H](OC)/C=C/O[C@@]5(C)Oc6c(C)c(O)c(c(c6C5=O)C3=O)C4=O)C2)c(F)cc2c(=O)c(C(=O)O)cn(C3CC3)c12 (mixture of isomers) [Example 27],0.004 to 0.5,0.06 to 32,0.06 to 16,0.004 to 0.5,0.008 to 0.063,0.008 to 0.125,0.008 to 0.063,2 to 32,0.125 to 2,0.125 to 8,0.5 to 64
COc1c(N2CCC(N(C)C3=C4NC(=O)/C(C)=C\C=C\[C@H](C)[C@H](O)[C@@H](C)[C@@H](O)[C@@H](C)[C@H](OC(C)=O)[C@H](C)[C@@H](OC)/C=C/O[C@@]5(C)Oc6c(C)c(O)c(c(c6C5=O)C3=O)C4=O)C2)c(F)cc2c(=O)c(C(=O)O)cn(C3CC3)c12 (mixture of isomers) [Example 28],0.004 to 0.5,0.06 to 32,0.06 to 16,0.004 to 0.5,0.008 to 0.063,0.008 to 0.125,0.008 to 0.063,2 to 32,0.125 to 2,0.125 to 8,0.5 to 64
